Results on 52 compounds are retold here after PubChem BioAssay AID1996.

Converted amounts (≈) assume the structure as drawn.

The conditions of the series: buffer; pH 7.4; 200.0 µM.
On to `CC(C)(C)c1ccc(C(=S)N2CCN(c3ccccc3)CC2)cc1`, for which the kinetic solubility was under 0.4 µg/mL.

For the compound `CC(=O)c1ccc(NC(=O)COC(=O)C2CC3C=CC2C3)cc1` (configuration not stated), the solubility (kinetic) was over 47 µg/mL.

In turn, `CCOc1ccccc1NC(=O)Cn1c(=O)sc2ccccc21` came in with a solubility (kinetic) of 1.2 µg/mL (≈ 3.65 µM).

With `COc1ccc(NS(=O)(=O)c2ccc(F)cc2F)cn1`, the kinetic solubility turned out to be 43.3 µg/mL (≈ 144 µM).

Regarding `CCc1ccc2[nH]c(C(=O)Nc3ccc(F)cc3Br)cc2c1`, the solubility (kinetic) was determined as 0.9 µg/mL (≈ 2.49 µM).

On to `O=C(NCCNC1CCCCC1)c1ccco1`, for which the kinetic solubility worked out at 26.2 µg/mL (≈ 111 µM).

`Cc1ccc2nc(CCc3nc4ccc(C)cc4[nH]3)[nH]c2c1.Cl` displayed a solubility (kinetic) of 8.9 µg/mL.

In turn, `COC(=O)C1CCN(CC(=O)NC(=O)NC2CCCCC2)CC1` displayed a solubility (kinetic) of over 48.8 µg/mL.

For the compound `COc1ccc(Cl)cc1C(=O)n1cnc2ccccc21`, the kinetic solubility is over 43 µg/mL.

The compound `O=C(CCc1ccccc1)N1CCCC1` showed a kinetic solubility of 29.9 µg/mL (≈ 147 µM).

The compound `CC1CCN(CCc2nc3ccccc3[nH]2)CC1` had a solubility (kinetic) of 33.7 µg/mL (≈ 138 µM).

`c1ccc2c(Cn3ccnc3)cccc2c1` yielded a solubility (kinetic) of 30.2 µg/mL (≈ 145 µM).

In turn, `O=C(CCc1nc2ccccc2s1)NC1CCOC1=O` (configuration not stated) yielded a kinetic solubility of over 43.6 µg/mL.

In the case of `Cc1ccsc1/C=N/Nc1ncnc2nc[nH]c12`, the solubility (kinetic) is over 38.7 µg/mL.

The compound `Cc1nc(CSc2ccc(Cl)cc2)cs1` came in with a solubility (kinetic) of 6.9 µg/mL (≈ 27 µM).

`NS(=O)(=O)c1ccc(NC(=O)Nc2ccccc2)cc1` gave a kinetic solubility of 42.8 µg/mL (≈ 147 µM).

For `COc1ccc(C(=O)Nc2cc(S(=O)(=O)N3CCCC3)ccc2Cl)cc1`, the solubility (kinetic) was 9.2 µg/mL (≈ 23.3 µM).

Compound `CC(CCc1ccccc1)NC(=O)Cc1ccc(Br)cc1` (configuration not stated) had a solubility (kinetic) of 2.5 µg/mL (≈ 7.22 µM).

With `Cc1cc(C(=O)N/N=C2\CCCC(=O)C2)c(C)o1`, the solubility (kinetic) is over 37.2 µg/mL.

With `Nc1ncnc(Oc2cccc(C(F)(F)F)c2)c1[N+](=O)[O-]`, the solubility (kinetic) amounted to 7.6 µg/mL (≈ 25.3 µM).

With `S=C(Nc1cc(Cl)cc(Cl)c1)N1CCCC1`, the kinetic solubility was determined as 3 µg/mL (≈ 10.9 µM).

Turning to `CC(C)CCNC(=O)c1cc2c(=O)[nH]c3ccccc3c2s1`, the solubility (kinetic) was under 0.3 µg/mL.

`O=S(=O)(NCCN1CCOCC1)c1cc(Cl)ccc1Cl` had a solubility (kinetic) of 41.6 µg/mL (≈ 123 µM).

`O=C(NCc1cccc(C(F)(F)F)c1)c1ccc2c(c1)OCCO2`: the solubility (kinetic) was determined as 6.1 µg/mL (≈ 18.1 µM).

In the case of `O=C(Nc1ccc(NC(=O)c2ccccc2F)cn1)c1ccco1`, the solubility (kinetic) was 8.4 µg/mL (≈ 25.8 µM).

`COc1ccc(NC(=O)CNC(=O)Cc2ccccc2)cc1OC` came in with a kinetic solubility of over 49.3 µg/mL.

Regarding `Cc1ccc(NS(=O)(=O)c2c(C)[nH]c(=O)[nH]c2=O)cc1F`, the solubility (kinetic) is over 47 µg/mL.

Turning to `COc1cccc(N2C(=O)/C(=C/c3ccc(C)o3)C(=O)NC2=S)c1`, the kinetic solubility was over 51.4 µg/mL.

In the case of `CCOC(=O)N1CCN(CC(=O)Nc2cc(OC)c(OC)cc2C#N)CC1`, the kinetic solubility came out at 16.3 µg/mL (≈ 43.3 µM).

`O=S(=O)(Nc1ccc(Cl)cc1)c1cccc2cccnc12` came in with a kinetic solubility of 5 µg/mL (≈ 15.7 µM).

`CN(c1ccc(OCC(=O)NC2CCC(O)CC2)cc1)S(=O)(=O)c1ccc(Cl)cc1` (configuration not stated) yielded a solubility (kinetic) of over 67.9 µg/mL.

`COc1cccc(NC(=O)CSc2nc(C3CC3)nc3ccccc23)c1` displayed a kinetic solubility of under 0.3 µg/mL.

As to `COC(=O)c1ccc(CNC(=O)CSc2nc3ccccc3[nH]2)cc1`, the solubility (kinetic) came to 11.6 µg/mL (≈ 32.6 µM).

In turn, `O=c1[nH]c(O)c(C=Nc2cc(F)cc(F)c2)c(=O)[nH]1` showed a solubility (kinetic) of 2.8 µg/mL (≈ 10.5 µM).

In the case of `COC(=O)c1ccc(CO/N=C/c2ccc(OC)cc2OC)cc1`, the kinetic solubility is under 0.7 µg/mL.

Consider `CCOc1ccc(OCCC(=O)OCC(=O)NC2CC2)cc1`, for which the kinetic solubility was over 46.1 µg/mL.

For `Cc1ccc(/C(N)=N/OC(=O)c2ccc3ccccc3c2)cc1`, the solubility (kinetic) worked out at 1 µg/mL (≈ 3.29 µM).

In the case of `O=C(CN1C(=O)NC2(CCCCCCC2)C1=O)NCc1ccc(Cl)cc1`, the kinetic solubility is 9.9 µg/mL (≈ 26.2 µM).

Regarding `O=C(Cc1c(F)cccc1Cl)Nc1nc2ccccc2s1`, the kinetic solubility is 0.8 µg/mL (≈ 2.49 µM).

Compound `Cc1ccc(S(=O)(=O)N(OCc2ccccc2)C(C)C(=O)O)cc1` (configuration not stated) gave a solubility (kinetic) of 52.1 µg/mL (≈ 149 µM).

`CC(CCc1ccccc1)NC(=O)CCC1CCCC1` (configuration not stated) yielded a solubility (kinetic) of 14.5 µg/mL (≈ 53 µM).

`CC1CCCCC1NC(=O)C1CC(=O)N(Cc2ccccc2)C1` (configuration not stated): the solubility (kinetic) is over 47.2 µg/mL.

For the compound `O=C(NCc1cccnc1)C(=O)C1C(=O)Nc2ccccc21` (configuration not stated), the kinetic solubility was determined as 42.5 µg/mL (≈ 144 µM).

`O=c1c(NCCc2ccccc2)c(-c2ccccc2)c1=O` came in with a solubility (kinetic) of under 0.6 µg/mL.

`Cc1ccc2nc(C)cc(C(=O)Nc3nccs3)c2c1`: the kinetic solubility was 19.3 µg/mL (≈ 68.1 µM).

`CCCCS(=O)(=O)N1CCCC(C(=O)Oc2ccccc2)C1` (configuration not stated) gave a solubility (kinetic) of 13.9 µg/mL (≈ 42.7 µM).

`Cc1ccc(Oc2nc3c(c(=O)n(C)c(=O)n3C)n2C)cc1C` returned a solubility (kinetic) of 40 µg/mL (≈ 127 µM).

Turning to `CCOc1cc(C2NC(=O)NC2=O)ccc1O` (configuration not stated), the solubility (kinetic) is over 35.4 µg/mL.

`Cc1ccnc2nc(C(=O)OCC(=O)Nc3ccc4c(c3)OCCO4)nn12` gave a kinetic solubility of over 55.4 µg/mL.

`Cc1ccc(Sc2ncccc2C(N)=O)cc1` gave a solubility (kinetic) of over 36.6 µg/mL.

`O=C(O)CSC(=S)N1CCCC1`: the kinetic solubility came out at 26.7 µg/mL (≈ 130 µM).

As for `COC(=O)[C@@H](N)CCCN=C(N)N[N+](=O)[O-].Cl`, the solubility (kinetic) was over 40.5 µg/mL.
